Assay results as given in PubChem BioAssay (NCI).
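48-hour exposure; five concentrations; linearly interpolated endpoints. Here, GI50 denotes the concentration required for 50% inhibition of growth. TGI marks complete inhibition of growth.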

Columns and labels:
Assay in all cases: NCI tumour cell line growth inhibition, 48 h
A498 renal = tested on: A498 renal
HCT-15 colon = tested on: HCT-15 colon
786-0 renal = tested on: 786-0 renal
MDA-MB-231 breast = tested on: MDA-MB-231 breast
SNB-75 CNS = tested on: SNB-75 CNS
K-562 leukemia = tested on: K-562 leukemia
SK-MEL-2 melanoma = tested on: SK-MEL-2 melanoma
HS 578T breast = tested on: HS 578T breast
KM12 colon = tested on: KM12 colon
HT29 colon = tested on: HT29 colon
SF-295 CNS = tested on: SF-295 CNS
DU-145 prostate = tested on: DU-145 prostate
SF-539 CNS = tested on: SF-539 CNS
IGROV1 ovarian = tested on: IGROV1 ovarian
CCRF-CEM leukemia = tested on: CCRF-CEM leukemia
RXF 393 renal = tested on: RXF 393 renal
NCI-H460 lung = tested on: NCI-H460 lung
LOX IMVI melanoma = tested on: LOX IMVI melanoma
SW-620 colon = tested on: SW-620 colon
BT-549 breast = tested on: BT-549 breast
UO-31 renal = tested on: UO-31 renal
TK-10 renal = tested on: TK-10 renal
OVCAR-4 ovarian = tested on: OVCAR-4 ovarian
SR leukemia = tested on: SR leukemia
COLO 205 colon = tested on: COLO 205 colon
M14 melanoma = tested on: M14 melanoma
A549 NSCLC = tested on: A549 NSCLC
EKVX NSCLC = tested on: EKVX NSCLC
RPMI-8226 leukemia = tested on: RPMI-8226 leukemia
OVCAR-3 ovarian = tested on: OVCAR-3 ovarian
U251 CNS = tested on: U251 CNS
MDA-MB-435 = tested on: MDA-MB-435
OVCAR-5 ovarian = tested on: OVCAR-5 ovarian
NCI-H226 lung = tested on: NCI-H226 lung
MOLT-4 leukemia = tested on: MOLT-4 leukemia
OVCAR-8 ovarian = tested on: OVCAR-8 ovarian
ACHN renal = tested on: ACHN renal
HOP-62 NSCLC = tested on: HOP-62 NSCLC
MALME-3M melanoma = tested on: MALME-3M melanoma
HL-60(TB) leukemia = tested on: HL-60(TB) leukemia
MCF7 breast = tested on: MCF7 breast
UACC-62 melanoma = tested on: UACC-62 melanoma
NCI-H23 lung = tested on: NCI-H23 lung
T-47D breast = tested on: T-47D breast
SF-268 CNS = tested on: SF-268 CNS
HOP-92 NSCLC = tested on: HOP-92 NSCLC
PC-3 prostate = tested on: PC-3 prostate
CAKI-1 renal = tested on: CAKI-1 renal
SN12C renal = tested on: SN12C renal
NCI-H522 lung = tested on: NCI-H522 lung
HCT-116 colon = tested on: HCT-116 colon
SNB-19 CNS = tested on: SNB-19 CNS
SK-OV-3 ovarian = tested on: SK-OV-3 ovarian
UACC-257 melanoma = tested on: UACC-257 melanoma
SK-MEL-28 melanoma = tested on: SK-MEL-28 melanoma
SK-MEL-5 melanoma = tested on: SK-MEL-5 melanoma
NCI/ADR-RES ovarian = tested on: NCI/ADR-RES ovarian
HCC-2998 colon = tested on: HCC-2998 colon

## O=[N+]([O-])c1cc([N+](=O)[O-])c(NN=C(c2ccc(O)cc2)c2ccc(O)cc2)cc1Cl
A498 renal
  GI50: 2.02 µM
  TGI: 3.64 µM
HCT-15 colon
  GI50: 0.407 µM
  TGI: 1.52 µM
786-0 renal
  GI50: 2.15 µM
  TGI: 4.26 µM
MDA-MB-231 breast
  GI50: 1.74 µM
  TGI: 3.29 µM
SNB-75 CNS
  GI50: 1.44 µM
  TGI: 3.08 µM
K-562 leukemia
  GI50: 4.89 µM
  TGI: > 100 µM
SK-MEL-2 melanoma
  GI50: 3.06 µM
  TGI: 10.6 µM
HS 578T breast
  GI50: 0.742 µM
  TGI: 2.04 µM
KM12 colon
  GI50: 1.83 µM
  TGI: 3.73 µM
HT29 colon
  GI50: 1.54 µM
  TGI: 4.07 µM
SF-295 CNS
  GI50: 1.84 µM
  TGI: 3.65 µM
DU-145 prostate
  GI50: 1.14 µM
  TGI: 2.64 µM
SF-539 CNS
  GI50: 1.75 µM
  TGI: 3.13 µM
IGROV1 ovarian
  GI50: 0.449 µM
  TGI: 1.57 µM
CCRF-CEM leukemia
  GI50: 0.716 µM
  TGI: 2.29 µM
RXF 393 renal
  TGI: 0.35 µM
NCI-H460 lung
  GI50: 1.92 µM
  TGI: 4 µM
LOX IMVI melanoma
  GI50: 0.409 µM
  TGI: 1.6 µM
SW-620 colon
  GI50: 0.348 µM
  TGI: 1.22 µM
BT-549 breast
  GI50: 2.08 µM
  TGI: 4.46 µM
UO-31 renal
  GI50: 1.76 µM
  TGI: 3.39 µM
TK-10 renal
  GI50: 2.26 µM
  TGI: 4.66 µM
OVCAR-4 ovarian
  GI50: 1.4 µM
  TGI: 2.95 µM
SR leukemia
  GI50: 1.68 µM
COLO 205 colon
  GI50: 2.4 µM
  TGI: 5.31 µM
M14 melanoma
  GI50: 1.83 µM
  TGI: 3.94 µM
A549 NSCLC
  GI50: 2.84 µM
  TGI: 6.59 µM
EKVX NSCLC
  GI50: 2.33 µM
  TGI: 5.1 µM
RPMI-8226 leukemia
  GI50: 1.98 µM
  TGI: 4.07 µM
OVCAR-3 ovarian
  GI50: 0.912 µM
  TGI: 2.24 µM
U251 CNS
  GI50: 1.87 µM
  TGI: 3.55 µM
MDA-MB-435
  GI50: 1.82 µM
  TGI: 3.6 µM
OVCAR-5 ovarian
  GI50: 2.2 µM
  TGI: 4.15 µM
NCI-H226 lung
  GI50: 2.01 µM
  TGI: 3.84 µM
MOLT-4 leukemia
  GI50: 0.832 µM
  TGI: 3.11 µM
OVCAR-8 ovarian
  GI50: 1.79 µM
  TGI: 4.6 µM
ACHN renal
  GI50: 1.88 µM
  TGI: 3.45 µM
HOP-62 NSCLC
  GI50: 2.44 µM
  TGI: 4.99 µM
MALME-3M melanoma
  GI50: 1.97 µM
  TGI: 3.98 µM
HL-60(TB) leukemia
  GI50: 0.684 µM
  TGI: 2.42 µM
MCF7 breast
  GI50: 1.37 µM
  TGI: 3.3 µM
UACC-62 melanoma
  GI50: 1.76 µM
  TGI: 3.28 µM
NCI-H23 lung
  GI50: 1.98 µM
  TGI: 4.45 µM
T-47D breast
  GI50: 0.572 µM
  TGI: 2.12 µM
SF-268 CNS
  GI50: 1.7 µM
  TGI: 3.29 µM
HOP-92 NSCLC
  GI50: 0.463 µM
  TGI: 2.48 µM
PC-3 prostate
  GI50: 0.813 µM
  TGI: 2.33 µM
CAKI-1 renal
  GI50: 1.7 µM
  TGI: 3.34 µM
SN12C renal
  GI50: 1.78 µM
  TGI: 3.36 µM
NCI-H522 lung
  GI50: 2 µM
  TGI: 4.22 µM
HCT-116 colon
  GI50: 1.23 µM
  TGI: 3.11 µM
SNB-19 CNS
  GI50: 0.366 µM
  TGI: 2.3 µM
SK-OV-3 ovarian
  GI50: 2.04 µM
  TGI: 4.15 µM
UACC-257 melanoma
  GI50: 2.17 µM
  TGI: 3.89 µM
SK-MEL-28 melanoma
  GI50: 0.685 µM
  TGI: 1.73 µM
SK-MEL-5 melanoma
  GI50: 1.47 µM
  TGI: 2.91 µM
NCI/ADR-RES ovarian
  GI50: 1.89 µM
  TGI: 3.89 µM

## Nc1nc(SCc2ccccc2)nc2[nH]ncc12
A498 renal
  GI50: 10 µM
  TGI: 22.2 µM
HCT-15 colon
  GI50: 20.4 µM
  TGI: > 100 µM
786-0 renal
  GI50: 18.7 µM
  TGI: 36 µM
MDA-MB-231 breast
  GI50: 16.4 µM
  TGI: 31.7 µM
K-562 leukemia
  GI50: 14.3 µM
  TGI: > 100 µM
SK-MEL-2 melanoma
  GI50: 20.7 µM
  TGI: 48.9 µM
HS 578T breast
  GI50: 14.3 µM
  TGI: 34.5 µM
KM12 colon
  GI50: 14.1 µM
  TGI: 28.4 µM
HT29 colon
  GI50: 17.1 µM
  TGI: 49.3 µM
SF-295 CNS
  GI50: 14.8 µM
  TGI: 29 µM
DU-145 prostate
  GI50: 21.2 µM
  TGI: 55.4 µM
SF-539 CNS
  GI50: 19 µM
  TGI: 41.7 µM
IGROV1 ovarian
  GI50: 19.4 µM
  TGI: 41.8 µM
RXF 393 renal
  GI50: 3.62 µM
  TGI: 11.5 µM
NCI-H460 lung
  GI50: 12.3 µM
  TGI: 29.4 µM
LOX IMVI melanoma
  GI50: 20.8 µM
  TGI: 58.2 µM
SW-620 colon
  GI50: 17.9 µM
  TGI: 37.6 µM
BT-549 breast
  GI50: 17.3 µM
  TGI: 35.1 µM
UO-31 renal
  GI50: 18 µM
  TGI: 38.4 µM
TK-10 renal
  GI50: 10 µM
  TGI: 21.9 µM
OVCAR-4 ovarian
  GI50: 12.2 µM
  TGI: 37.1 µM
SR leukemia
  GI50: 18 µM
  TGI: 51.1 µM
COLO 205 colon
  GI50: 17.1 µM
  TGI: 53.6 µM
M14 melanoma
  GI50: 19.4 µM
  TGI: 34.8 µM
A549 NSCLC
  GI50: 13.6 µM
  TGI: 29.1 µM
EKVX NSCLC
  GI50: 16.1 µM
  TGI: 35.8 µM
RPMI-8226 leukemia
  GI50: 7.76 µM
  TGI: 46 µM
HCC-2998 colon
  GI50: 19.6 µM
  TGI: 34.4 µM
OVCAR-3 ovarian
  GI50: 12.6 µM
  TGI: 25.7 µM
U251 CNS
  GI50: 14.9 µM
  TGI: 33.6 µM
MDA-MB-435
  GI50: 15.8 µM
  TGI: 29.9 µM
OVCAR-5 ovarian
  GI50: 17.6 µM
  TGI: 31.7 µM
NCI-H226 lung
  GI50: 13.4 µM
  TGI: 27.4 µM
MOLT-4 leukemia
  GI50: 25.7 µM
  TGI: > 100 µM
OVCAR-8 ovarian
  GI50: 25.9 µM
  TGI: > 100 µM
ACHN renal
  GI50: 15.5 µM
  TGI: 31.6 µM
HOP-62 NSCLC
  GI50: 18.7 µM
  TGI: 33.4 µM
MALME-3M melanoma
  GI50: 11.7 µM
  TGI: 24.3 µM
MCF7 breast
  GI50: 11.8 µM
  TGI: 26.6 µM
UACC-62 melanoma
  GI50: 14.4 µM
  TGI: 27.9 µM
NCI-H23 lung
  GI50: 12.6 µM
  TGI: 25.8 µM
T-47D breast
  GI50: 4.15 µM
  TGI: 15.6 µM
SF-268 CNS
  GI50: 20.5 µM
  TGI: 69.2 µM
HOP-92 NSCLC
  GI50: 2.54 µM
  TGI: 11.7 µM
PC-3 prostate
  GI50: 13.7 µM
  TGI: 28.7 µM
CAKI-1 renal
  GI50: 15.2 µM
  TGI: 28.8 µM
SN12C renal
  GI50: 16.9 µM
  TGI: 31.3 µM
NCI-H522 lung
  GI50: 17.9 µM
  TGI: 46 µM
HCT-116 colon
  GI50: 13.2 µM
  TGI: 26.3 µM
SNB-19 CNS
  GI50: 19.8 µM
  TGI: 42.4 µM
SK-OV-3 ovarian
  GI50: 20 µM
  TGI: 39.1 µM
UACC-257 melanoma
  GI50: 14.6 µM
  TGI: 28.1 µM
SK-MEL-28 melanoma
  GI50: 17.1 µM
  TGI: 35.9 µM
SK-MEL-5 melanoma
  GI50: 12 µM
  TGI: 25.1 µM
NCI/ADR-RES ovarian
  GI50: 12.3 µM
  TGI: 27.8 µM
